Measurements as given in US7879370B2, “Composition of which chief ingredient is polysaccharides having an immunoregulatory function” (Merican Corporation, priority 2006, dated 2011).

Format: in vivo, BALB/c mice
Conditions: mouse antiallergy test, days 0 to 22; FIG. 9
Procedure: Body weight was determined with a scale on days 0, 7, 14, and 22. General symptoms were observed daily from day 0 to day 22. Blood plasma analysis was conducted by measuring the OVA-specific IgE level using plasma obtained by centrifuging blood drawn from the ophthalmic vein on days 0, 14, 18, and 22.

## O=P1(N(CCCl)CCCl)NCCCO1 (stereo not shown) [cyclophosphamide]
  change in body weights: reduction in the body weight
